Measured values: patent US5516525A, “Vitamin D derivative feed compositions and methods of use” (University of Georgia Research Foundation, Inc., priority 1994, dated 1996)
Like-named read-outs stand apart in the source and are kept apart here.

What was measured:
[1] = 16-day body weight and gain:feed (Example 2); type: in vivo, chicken (Peterson X Arbor Acre cockerels); details: D3 […], derivatives 10 μg/kg feed
Method: The basal diet used is described above in Table 2. Disulfiram was added to the basal diet of some chickens as indicated in Table 10 at a level of 30 mg/kg of feed. […]

tibial dyschondroplasia [2] = type: in vivo, chicken (Peterson X Arbor Acre cockerels); details: for #3/No. / % N2 + 3 / % N3: Study 3; for #3/No. / % N2 + 3 / % N3 / #3/total / % #3: D3 […], derivatives 10 μg/kg feed; for incidence and severity of tibial dyschondroplasia: in words, Example 2
Method: Deep irregularities are apparent.
(§1) The basal diet used is described above in Table 2. Disulfiram was added to the basal diet of some chickens as indicated in Table 10 at a level of 30 mg/kg of feed.
(§2) After the tibia was scored for incidence and severity of tibial dyschondroplasia, the left tibia was removed for a bone ash determination on the fat-free dried bone.

^47 Ca retention = assay: 47Ca absorption and retention (Example 2); type: in vivo, chicken (Peterson X Arbor Acre cockerels); design: key to ^47 Ca intercept / Ca^47 Ret.: % of administered 47Ca retained (y-intercept of retention-vs-days plot); details: for Ca^47 Ret. / Ca^47 slope: Study 3; for Ca^47 Ret. / Ca^47 slope / ^47 Ca intercept / ^47 Ca slope: D3 […], derivatives 10 μg/kg feed; for ^47 Ca intercept / ^47 Ca slope: Study 2
Method: Absorption and retention of dietary calcium was measured by orally dosing chicks with ^47 Ca and then measuring the total body radioactive count, as described in Suso and Edwards, "A Study of Techniques for Measuring ^65 Zn Absorption and Biological Half-life in the Chicken," Poult. Sci. 47:991-999 (1968). Specifically, ten seven day old birds in one pen under the indicated dietary treatments were dosed orally with 0.5 milliliter of water solution containing 0.5 microcuries of ^47 Ca and 0.1 to 1.0 micrograms of calcium. The total body radioactive content of the individual chickens was determined immediately following dosing, and also on days 7, 9, 12 and 14 following dosing. A plot of percent administered ^47 Ca which was retained versus number of days yields a line which has a slope corresponding to the half-life of the radioactive calcium in the chicken, and a y-intercept that corresponds to the amount of calcium absorbed by the chicken. Effect of vitamin D3 derivatives on Tibial Dyschondroplasia.

bone ash [3] = assay: bone ash (Example 2); type: in vivo, chicken (Peterson X Arbor Acre cockerels); details: in words
Method: as §1, §2

tibial dyschondroplasia [4] = details: cited from earlier work; for incidence of tibial dyschondroplasia: 20 ng/day, Edwards, J. Nutr. 114:1001 (1984); for tibial dyschondroplasia (effect of dietary factor): chickens, dietary level
bone ash [5] = assay: bone ash of left tibia (Example 1); details: in words
Text: The left tibia was removed for bone ash determination on the fat-free bone.

[6] = 9-day body weight, feed consumption and gain:feed (Example 1); details: in words, Example 1
Method: Newly hatched Petersen X Arbor Acre cockerels obtained from a commercial hatchery were used. Animals were housed in electrically heated Petersime battery brooders with wire-mesh floors located in a room in which the temperature was maintained at 22° C., fluorescent lights were on 24 hours each day in the room and the cages, and sunlight was present during the day from large windows. No attempt was made to limit the natural production of vitamin D3. Feed and water were available to the chickens at all times.
Ten newly hatched birds were randomly placed in each section of the Petersime batteries until the birds were nine days old. The measurements described below were calculated on a pen basis; all statistical analyses were conducted on pen averages. Blood samples were taken by cardiac puncture with heparinized syringes from one randomly chosen bird from each pen on the ninth day before weighing the birds.
At nine days of age, pen body weights were obtained for all birds and their feed consumption was recorded. […] Briefly, using a three week old chicken as the reference animal, a score of zero indicates normal cartilage which is narrow with little irregularities. […] Deep irregularities are apparent. A score of three indicates a large mass of cartilage in the proximal end of the tibia. The birds were also scored for phosphorus deficient rickets at the same time they were scored for tibial dyschondroplasia. Chickens which had normal proliferating prehypertrophied zone and a lengthened metaphyseal primary spongiosa were classified as phosphorus deficient rickets. The left tibia was removed for bone ash determination on the fat-free bone.

calcium = details: in vivo; cited from earlier work
[7] = Study 1, with disulfiram 30 mg/kg feed
[8] = Study 2, with disulfiram 30 mg/kg feed
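For #3/No. in this document: score 3 means a large cartilage mass in the proximal tibia.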
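For #3/total in this document: score 3 means a large cartilage mass in the proximal tibia.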
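For % #3 in this document: score 3 means a large cartilage mass in the proximal tibia.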
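For % N3 in this document: score 3 means a large cartilage mass in the proximal tibia.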

Compound | 16 Day Wt. ([1]; Study 3) | Gain/feed ([1]; Study 3) | 16 Day wt. ([1]; Study 4) | Gain/feed ([1]; Study 4) | #3/No. (tibial dyschondroplasia [2]) | % N2 + 3 (tibial dyschondroplasia [2]) [%] | % N3 (tibial dyschondroplasia [2]) [%] | #3/total (tibial dyschondroplasia [2]; Study 4) | % #3 (tibial dyschondroplasia [2]; Study 4) [%] | incidence and severity of tibial dyschondroplasia (tibial dyschondroplasia [2]) | Ca^47 Ret. (^47 Ca retention) | Ca^47 slope (^47 Ca retention) | 16 Day wt. [1, 7] | Gain:Feed [1, 7] | 16 day wt [1, 8] | Gain:Feed [1, 8] | #3/total (tibial dyschondroplasia [2]; [8]) | ^47 Ca intercept (^47 Ca retention; with disulfiram 30 mg/kg feed) | ^47 Ca slope (^47 Ca retention; with disulfiram 30 mg/kg feed) | tibial dyschondroplasia (effect of dietary factor) (tibial dyschondroplasia [4]) | other results
C=C1/C(=C\C=C2/CCC[C@]3(C)[C@@H]([C@H](C)CCC(O)C(C)(C)O)CC[C@@H]23)C[C@@H](O)C[C@@H]1O (stereo partly shown) [1,24,25-(OH)2 D3, 1,24,25-trihydroxycholecalciferol] | 428 | .688 | 376 | .681 | 6/60 | 22 | 10 | 8/57 | 14 | significant reduction in the incidence of tibial dyschondroplasia | 76 | -.77 |  |  |  |  |  |  |  |  | 
C=C1/C(=C\C=C2/CCC[C@]3(C)[C@@H]([C@H](C)CCCC(C)(C)O)CC[C@@H]23)C[C@@H](O)C[C@@H]1O [1,25-(OH)2 D3, 1,25-dihydroxycholecalciferol] | 421 | .66 | 355 | .652 | 5/58 | 16 | 9 | 4/52 | 8 |  | 78 | -.72 | 426 | .701 | 377 | .684 | 6/30 | 70 | -2.11 |  | 16 Day wt. ([1]; Study 1, basal diet): 421; Gain:Feed ([1]; Study 1, basal diet): .670; 16 day wt ([1]; Study 2, basal diet): 361; Gain:Feed ([1]; Study 2, basal diet): .661; #3/total (tibial dyschondroplasia [2]; Study 1, basal diet): 1/29; #3/total (tibial dyschondroplasia [2]; [7]): 4/30; #3/total (tibial dyschondroplasia [2]; Study 2, basal diet): 2/30; bone ash (bone ash [3]): increases bone ash; ^47 Ca intercept (^47 Ca retention; basal diet): 84; ^47 Ca slope (^47 Ca retention; basal diet): -2.85; dietary ^47 Ca absorbed (^47 Ca retention; in words, Example 2): significantly more dietary ^47 Ca absorbed; half-life, or retention, of the calcium (^47 Ca retention; in words, Example 2): increasing the half-life; incidence of tibial dyschondroplasia (tibial dyschondroplasia [4]): no effect on the incidence of tibial dyschondroplasia; bone ash (bone ash [5]): increased; nine day weight [6]: increased
C=C1/C(=C\C=C2/CCC[C@]3(C)[C@@H]([C@H](C)CC[C@@H](F)C(C)(C)O)CC[C@@H]23)C[C@@H](O)C[C@@H]1O [1,25-(OH)2-24R-FD3, 1,25-dihydroxy-24-fluorocholecalciferol] | 413 | .663 | 360 | .661 | 3/60 | 15 | 5 | 9/56 | 16 | significant reduction in the incidence of tibial dyschondroplasia | 72 | -.47 |  |  |  |  |  |  |  |  | 
[2H]C([2H])([2H])C(O)(CCC[C@@H](C)[C@H]1CC[C@H]2/C(=C/C=C3/C[C@@H](O)C[C@H](O)C3=C)CCC[C@]12C)C([2H])([2H])[2H] [1,25-(OH)2-26,27[^1 H]6 D3, 1,25-dihydroxy-26,27-hexadeuterocholecalciferol] | 422 | .687 | 360 | .646 | 0/60 | 8 | 0 | 4/58 | 7 | significant reduction in the incidence of tibial dyschondroplasia | 80 | .15 |  |  |  |  |  |  |  |  | 
C=C1/C(=C\C=C2/CCC[C@]3(C)[C@@H]([C@H](C)CCCC(C)C)CC[C@@H]23)C[C@@H](O)C[C@@H]1O [1-OHD3, 1-hydroxycholecalciferol] | 423 | .661 | 372 | .655 | 3/60 | 17 | 5 | 8/57 | 15 | significant reduction in the incidence of tibial dyschondroplasia | 75 | -.95 |  |  |  |  |  |  |  |  | bone ash (bone ash [5]): increased; nine day weight [6]: increased
C=C1CC[C@H](O)C/C1=C/C=C1\CCC[C@]2(C)[C@@H]([C@H](C)CCC(O)C(C)(C)O)CC[C@@H]12 (stereo partly shown) [24,25-(OH)2 D3, 24,25-dihydroxycholecalciferol, reference compound] | 424 | .696 | 351 | .663 | 17/59 | 53 | 29 | 25/56 | 46 | not effective in preventing the development of tibial dyschondroplasia | 67 | -.77 |  |  |  |  |  |  |  |  | incidence of tibial dyschondroplasia (tibial dyschondroplasia [4]): no effect on the incidence of tibial dyschondroplasia; bone ash (bone ash [5]): no effect; nine day weight [6]: no effect
C=C1CC[C@H](O)C/C1=C/C=C1\CCC[C@]2(C)[C@@H]([C@H](C)CCCC(C)(C)O)CC[C@@H]12 [25-OHD3, 25-hydroxycholecalciferol] |  |  |  |  |  |  |  |  |  | reduced the incidence of tibial dyschondroplasia |  |  | 398 | .706 | 395 | .728 | 11/28 | 74 | -1.67 |  | 16 Day wt. ([1]; Study 1, basal diet): 395; Gain:Feed ([1]; Study 1, basal diet): .667; 16 day wt ([1]; Study 2, basal diet): 392; Gain:Feed ([1]; Study 2, basal diet): .713; #3/total (tibial dyschondroplasia [2]; Study 1, basal diet): 1/28; #3/total (tibial dyschondroplasia [2]; Study 2, basal diet): 7/30; ^47 Ca intercept (^47 Ca retention; basal diet): 72
C=C1CC[C@H](O)C/C1=C/C=C1\CCC[C@]2(C)[C@@H]([C@H](C)CCCC(C)C)CC[C@@H]12 [D3, cholecalciferol, reference compound] | 434 | .709 | 383 | .701 | 13/59 | 34 | 22 | 20/58 | 35 |  | 75 | -1.13 | 432 | .708 | 374 | .666 | 12/30 | 72 | -1.97 |  | 16 Day wt. ([1]; Study 1, basal diet): 451; Gain:Feed ([1]; Study 1, basal diet): .734; 16 day wt ([1]; Study 2, basal diet): 368; Gain:Feed ([1]; Study 2, basal diet): .647; #3/total (tibial dyschondroplasia [2]; Study 1, basal diet): 4/27; #3/total (tibial dyschondroplasia [2]; [7]): 9/27; #3/total (tibial dyschondroplasia [2]; Study 2, basal diet): 5/29; ^47 Ca intercept (^47 Ca retention; basal diet): 77; ^47 Ca slope (^47 Ca retention; basal diet): -1.88
CCN(CC)C(=S)SSC(=S)N(CC)CC [Disulfiram, bis(diethylthiocarbamyl)disulfide, reference compound] |  |  |  |  |  |  |  |  |  |  |  |  | 433 | .750 | 394 | .671 | 14/28 | 73 | -1.59 |  | #3/total (tibial dyschondroplasia [2]; [7]): 16/30; calcium absorption / loss (calcium): lowers the absorption of calcium
CN(C)C(=S)SSC(=S)N(C)C [thiruram, bis(dimethylthiocarbamyl)disulfide, reference compound] |  |  |  |  |  |  |  |  |  |  |  |  |  |  |  |  |  |  |  | causes tibial dyschondroplasia | calcium absorption / loss (calcium): rapid loss of intramuscularly-injected calcium
calcium |  |  |  |  |  |  |  |  |  |  |  |  |  |  |  |  |  |  |  | retards development of the lesion | 
chloride |  |  |  |  |  |  |  |  |  |  |  |  |  |  |  |  |  |  |  | increased the incidence of the abnormality | 
magnesium |  |  |  |  |  |  |  |  |  |  |  |  |  |  |  |  |  |  |  | decrease the incidence of tibial dyschondroplasia | 
